# Assays:
# [1] = system: CRBN depleted myeloma cell lines; assay: MTT cell viability of CRBN shRNA knock-down myeloma cell lines versus NT control cells in presence of anti-myeloma drugs; format: cell-based, human; settings: sorted GFP positive myeloma cell lines with CRBN knock-down
# Experimental: (§1) The lentiviruses expressing NT or CRBN shRNAs were subcloned into a GFP containing construct and used to infect various myeloma cell lines as described elsewhere (Zhu et al., Blood, 117(14):3847-3857 (2011); Epublished Feb. 2, 2011). After a 48-hour infection period, efficiency was measured at 72 hours and 6 days post infection by FACScan analysis of GFP expression. Cell viability was measured by 3-(4,5-dimethylthiazol)-2,5-diphenyl tetrazolium (MTT) dye absorbance according to the manufacturer's instructions (Boehringer Mannheim, Mannheim, Germany). Cells were also harvested at 72 hours post infection for real-time PCR analysis of CRBN levels in control and CRBN shRNA expressing cells. At three weeks post infection, GFP-positive cells were sorted and expanded. Real-time PCR was performed to measure CRBN levels in sorted cells.
# Plates were incubated for 72 hours to six days. Cell viability was determined using an MTT assay. Each experimental condition was performed in triplicate and repeated at least once.
# Proliferation of those CRBN depleted but surviving MM cells were then tested in the absence or presence of different anti-myeloma drugs.
# human MM cells lines = assay: MTT assay, baseline cytotoxicity on a panel of human MM cell lines; format: cell-based; settings: 11 tested MM cell lines, 1.6 μM to 50 μM, 72 hours, in vitro
# Experimental: as §1
# In some experiments, cells were incubated with various doses of lenalidomide, dexamethasone, melphalan, or bortezomib. Plates were incubated for 72 hours to six days. Cell viability was determined using an MTT assay. Each experimental condition was performed in triplicate and repeated at least once.
# A MTT assay was performed on a panel of genetically heterogeneous human MM cells lines in vitro (FIG. 1). […] The same dose of thalidomide, however, had no effect on MM cell growth.
Structure (SMILES),sensitivity of CRBN knock-down cells compared with NT control cells [1],growth of MM cell lines (MTT) (human MM cells lines)
CC(C)C[C@H](NC(=O)[C@H](Cc1ccccc1)NC(=O)c1cnccn1)B(O)O [Bortezomib],more sensitive,
Nc1cccc2c1CN(C1CCC(=O)NC1=O)C2=O (stereo not shown) [Lenalidomide],,inhibited growth of 8 of 11 tested MM cell lines
Nc1cccc2c1C(=O)N(C1CCC(=O)NC1=O)C2=O (stereo not shown) [pomalidomide],resistance,
O=C1CCC(N2C(=O)c3ccccc3C2=O)C(=O)N1 (stereo not shown) [thalidomide],,no effect
